The source of these data is patent US9452997B2, “Piperidine and piperazine derivatives as autotaxin inhibitors” (Merck Patent GmbH, priority 2009, dated 2016).

SMILES strings stand for the structures.

The target of this test is T1, Recombinant autotaxin (Homo sapiens, UniProt Q13822).
T1 construct: made in house; host or cells: Hi5 insect cells (baculovirus)
Nature of the test: Autotaxin assay (Amplex Red, LPC substrate). It counts as biochemical. The settings on record: recombinant autotaxin, LPC substrate, Amplex Red detection; values given as upper bounds. The gist of the method:
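Recombinant autotaxin (Hi5 baculovirus, 16 ng) pre-incubated with compound 30 min at 22° C, then reacted with 75 μM egg LPC for 90 min at 37° C. Choline released is coupled to H2O2 and Amplex Red fluorescence (ex 485/em 612 nm). IC50 from ten 1:3 dilutions from 30 μM, duplicates, normalised to 500 μM C14 LPA.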
Take `COc1ccc(Cl)cc1COC(=O)N1CCN(C2CCN(C(=O)c3ccc4[nH]nnc4c3)CC2)CC1` [Compound 38, 4-[1-(1H-Benzotriazole-5-carbonyl)-piperidin-4-yl]-piperazine-1-carboxylic acid 5-chloro-2-methoxy-benzyl ester]: the 50% inhibitory concentration (IC50) (as a rule, the concentration that gives 50% inhibition) was less than 1000 nM.
With `O=C(OCc1ccc(Cl)cc1F)N1CCC(NC2CCN(C(=O)c3ccc4[nH]nnc4c3)CC2)C1` (stereo not drawn) [Compound 63, 3-[1-(1H-Benzotriazole-5-carbonyl)-piperidin-4-ylamino]-pyrrolidine-1-carboxylic acid 4-chloro-2-fluoro-benzyl ester], the IC50 is less than 10000 nM.
Then `O=C(OCc1ccccc1Cl)N1CCN(C2CCN(C(=O)c3ccc4[nH]nnc4c3)CC2)CC1` [Compound 39, 4-[1-(1H-Benzotriazole-5-carbonyl)-piperidin-4-yl]-piperazine-1-carboxylic acid 2-chloro-benzyl ester], with less than 10000 nM; and `Cc1ccc(C(C)CC(=O)N2CCN(C3CCN(C(=O)c4ccc5[nH]nnc5c4)CC3)CC2)cc1C` (stereo not drawn) [Compound 176, 1-{4-[1-(1H-Benzotriazole-5-carbonyl)-piperidin-4-yl]-piperazin-1-yl}-3-(3,4-dimethyl-phenyl)-butan-1-one], with less than 30000 nM; and `O=C(OCc1ccc(OC(F)(F)F)c(Cl)c1)N1CCC(N2CCN(C(=O)c3ccc4[nH]nnc4c3)CC2)CC1` [Compound 143, 4-[4-(1H-Benzotriazole-5-carbonyl)-piperazin-1-yl]-piperidine-1-carboxylic acid 3-chloro-4-trifluoromethoxy-benzyl ester], with less than 1000 nM.
Under `O=C(OCc1ccc(C(F)(F)F)c(Cl)c1)N1CCC(N2CCN(C(=O)c3ccc4[nH]nnc4c3)CC2)CC1` [Compound 92, 4-[4-(1H-Benzotriazole-5-carbonyl)-piperazin-1-yl]-piperidine-1-carboxylic acid 3-chloro-4-trifluoromethyl-benzyl ester] stands less than 1000 nM; under `O=C(OCc1c(F)c(F)c(C(F)(F)F)c(F)c1F)N1CCC(N2CCN(C(=O)c3ccc4[nH]nnc4c3)CC2)CC1` [Compound 144, 4-[4-(1H-Benzotriazole-5-carbonyl)-piperazin-1-yl]-piperidine-1-carboxylic acid 2,3,5,6-tetrafluoro-4-trifluoromethyl-benzyl ester], less than 1000 nM; under `O=C(OCc1cc(Br)cc(Br)c1)N1CCN(C2CCN(C(=O)c3ccc4[nH]nnc4c3)CC2)CC1` [Compound 148, 4-[1-(1H-Benzotriazole-5-carbonyl)-piperidin-4-yl]-piperazine-1-carboxylic acid 3,5-dibromo-benzyl ester], less than 1000 nM.
For the compound `O=C(OCc1ccc(Cl)cc1F)N1CCC(N2CCN(C(=O)c3ccc4[nH]nnc4c3)CC2)CC1` [Compound 62, 4-[4-(1H-Benzotriazole-5-carbonyl)-piperazin-1-yl]-piperidine-1-carboxylic acid 4-chloro-2-fluoro-benzyl ester], the IC50 is less than 1000 nM.
For `O=C(NC1CCC(N2CCN(C(=O)OCc3ccc(C(F)(F)F)c(F)c3)CC2)CC1)c1ccc2[nH]nnc2c1` (stereo not drawn) [Compound 189, 4-{4-[(1H-Benzotriazole-5-carbonyl)-amino]-cyclohexyl}-piperazine-1-carboxylic acid 3-fluoro-4-trifluoromethyl-benzyl ester], the IC50 is less than 10000 nM.
Then `O=C(NCCc1c[nH]cn1)C1CC(=O)N(C2CCN(C(=O)OCc3cc(Cl)cc(Cl)c3)CC2)C1` (stereo not drawn) [Compound 53, 4-{4-[2-(1H-Imidazol-4-yl)-ethylcarbamoyl]-2-oxo-pyrrolidin-1-yl}-piperidine-1-carboxylic acid 3,5-dichloro-benzyl ester], with less than 10000 nM; and `O=C(OCc1ccc(SC(F)(F)F)cc1)N1CCC(N2CCN(C(=O)c3ccc4[nH]nnc4c3)CC2)CC1` [Compound 86, 4-[4-(1H-Benzotriazole-5-carbonyl)-piperazin-1-yl]-piperidine-1-carboxylic acid 4-trifluoromethylsulfanyl-benzyl ester], with less than 1000 nM.
Then `O=C(NC1CCC(N2CCN(C(=O)OCc3ccccc3)CC2)CC1)c1ccc2[nH]nnc2c1` (stereo not drawn) [Compound 185, 4-{4-[(1H-Benzotriazole-5-carbonyl)-amino]-cyclohexyl}-piperazine-1-carboxylic acid benzyl ester], with less than 30000 nM.
With `Cn1nc2ccccc2c1COC(=O)N1CCN(C2CCN(C(=O)c3ccc4[nH]nnc4c3)CC2)CC1` [Compound 134, 4-[1-(1H-Benzotriazole-5-carbonyl)-piperidin-4-yl]-piperazine-1-carboxylic acid 2-methyl-2H-indazol-3-ylmethyl ester], the IC50 is less than 30000 nM.
Then `O=C(OCc1ccc(Br)cc1F)N1CCN(C2CCN(C(=O)c3ccc4[nH]nnc4c3)CC2)CC1` [Compound 156, 4-[1-(1H-Benzotriazole-5-carbonyl)-piperidin-4-yl]-piperazine-1-carboxylic acid 4-bromo-2-fluoro-benzyl ester], with less than 10000 nM; and `O=C(OCc1ccc(C(F)(F)F)c(Cl)c1)N1CCN(C2CCN(C(=O)c3ccc4[nH]nnc4c3)CC2)CC1` [Compound 96, 4-[1-(1H-Benzotriazole-5-carbonyl)-piperidin-4-yl]-piperazine-1-carboxylic acid 3-chloro-4-trifluoromethyl-benzyl ester], with less than 1000 nM; and `O=C(OCc1cc(Cl)c(F)c(Cl)c1)N1CCC(N2CCN(C(=O)c3ccc4[nH]nnc4c3)CC2)CC1` [Compound 93, 4-[4-(1H-Benzotriazole-5-carbonyl)-piperazin-1-yl]-piperidine-1-carboxylic acid 3,5-dichloro-4-fluoro-benzyl ester], with less than 1000 nM.
Under `O=C(OCc1cc(C(F)(F)F)cc(C(F)(F)F)c1)N1CCN(C2CCN(C(=O)c3ccc4[nH]nnc4c3)CC2)C(=O)C1` [Compound 184, 4-[1-(1H-Benzotriazole-5-carbonyl)-piperidin-4-yl]-3-oxo-piperazine-1-carboxylic acid 3,5-bis-trifluoromethyl-benzyl ester] stands less than 1000 nM.
Then `O=C(OCc1cccc(OC(F)(F)F)c1)N1CCN(C2CCN(C(=O)c3ccc4[nH]nnc4c3)CC2)CC1` [Compound 128, 4-[1-(1H-Benzotriazole-5-carbonyl)-piperidin-4-yl]-piperazine-1-carboxylic acid 3-trifluoromethoxy-benzyl ester], with less than 1000 nM; and `O=C(OCc1cc(Cl)cc(Cl)c1)N1CCC(N2CCN(C(=O)c3ccc4[nH]c(=O)oc4c3)CC2)CC1` [Compound 25, 4-[4-(2-Oxo-2,3-dihydro-benzooxazole-6-carbonyl)-piperazin-1-yl]-piperidine-1-carboxylic acid 3,5-dichloro-benzyl ester], with less than 1000 nM.
Consider `O=C(Nc1ccc2[nH]nnc2c1)c1cccc(N2CCN(C(=O)OCc3ccc(Cl)cc3)CC2)c1` [Compound 10, 4-[3-(1H-Benzotriazol-5-ylcarbamoyl)-phenyl]-piperazine-1-carboxylic acid 4-chloro-benzyl ester], for which the IC50 was less than 30000 nM.
With `O=C(OCc1cc(Cl)cc(C(F)(F)F)c1)N1CCN(C2CCN(C(=O)c3ccc4[nH]nnc4c3)CC2)CC1` [Compound 95, 4-[1-(1H-Benzotriazole-5-carbonyl)-piperidin-4-yl]-piperazine-1-carboxylic acid 3-chloro-5-trifluoromethyl-benzyl ester], the IC50 was less than 1000 nM.
As for `O=C(CCc1ccc(C(F)(F)F)cc1)N1CCC(C2CCN(C(=O)c3ccc4[nH]nnc4c3)CC2)CC1` [Compound 22, 1-[1′-(1H-Benzotriazole-5-carbonyl)-[4,4′]bipiperidinyl-1-yl]-3-(4-trifluoromethyl-phenyl)-propan-1-one], the IC50 is less than 1000 nM.
Turning to `O=C(OCc1ccc(Cl)c(Cl)c1)N1CCC(N2CCN(C(=O)c3ccc4[nH]nnc4c3)CC2)CC1` [Compound 85, 4-[4-(1H-Benzotriazole-5-carbonyl)-piperazin-1-yl]-piperidine-1-carboxylic acid 3,4-dichloro-benzyl ester], the IC50 was less than 1000 nM.
With `O=C(NCCc1ccccn1)C1CC(=O)N(C2CCN(C(=O)OCc3cc(Cl)cc(Cl)c3)CC2)C1` (stereo not drawn) [Compound 17, 4-[2-Oxo-4-(2-pyridin-2-yl-ethylcarbamoyl)-pyrrolidin-1-yl]-piperidine-1-carboxylic acid 3,5-dichloro-benzyl ester], the IC50 was less than 10000 nM.
Then `O=C(CCc1ccc(C(F)(F)F)c(F)c1)N1CCN(C2CCN(C(=O)c3ccc4[nH]nnc4c3)CC2)CC1` [Compound 105, 1-{4-[1-(1H-Benzotriazole-5-carbonyl)-piperidin-4-yl]-piperazin-1-yl}-3-(3-fluoro-4-trifluoromethyl-phenyl)-propan-1-one], with less than 1000 nM; and `O=C(OCc1cc(Cl)c(F)c(Cl)c1)N1CCN(C2CCN(C(=O)c3ccc4[nH]nnc4c3)CC2)CC1` [Compound 97, 4-[1-(1H-Benzotriazole-5-carbonyl)-piperidin-4-yl]-piperazine-1-carboxylic acid 3,5-dichloro-4-fluoro-benzyl ester], with less than 1000 nM.
Under `Cc1ccc(-c2ccccc2C(=O)N2CCC(C3CCN(C(=O)c4ccc5[nH]nnc5c4)CC3)CC2)cc1` [Compound 11, [1′-(1H-Benzotriazole-5-carbonyl)-[4,4′]bipiperidinyl-1-yl]-(4′-methyl-biphenyl-2-yl)-methanone] stands less than 1000 nM; under `O=C(Nc1ccc2[nH]nnc2c1)C1CC(=O)N(C2CCN(C(=O)OCc3cc(Cl)cc(Cl)c3)CC2)C1` (stereo not drawn) [Compound 4, 4-[4-(1H-Benzotriazol-5-ylcarbamoyl)-2-oxo-pyrrolidin-1-yl]-piperidine-1-carboxylic acid 3,5-dichloro-benzyl ester], less than 1000 nM.
Turning to `O=C(OCc1ccc(F)c(C(F)(F)F)c1)N1CCN(C2CCN(C(=O)c3ccc4[nH]nnc4c3)CC2)CC1` [Compound 100, 4-[1-(1H-Benzotriazole-5-carbonyl)-piperidin-4-yl]-piperazine-1-carboxylic acid 4-fluoro-3-trifluoromethyl-benzyl ester], the IC50 was less than 1000 nM.
